According to patent US8124579B2, “Heat shock protein 20-related polypeptides and uses therefor” (Arizona Board of Regents, priority 2003, dated 2012):

Test system: Swiss 3T3 cells
Experiment: Actin stress fibers and cell morphology, phalloidin staining
Type: cell-based
Details: peptides 25 μM, forskolin and lysophosphatidic acid 10 μM, serum 10%, 30 minutes, phalloidin stain
Method: Unless otherwise stated, all reagents were purchased from Sigma, St. Louis, Mo. Swiss Albino 3T3 fibroblasts (ATCC, Manassas, Va.) were cultured in DMEM supplemented with 10% BCS, 4 mM L-glutamine and 50 μg/ml penicillin-streptomycin and maintained at 37° C., 5% CO2. Cells were seeded and cultured overnight. Culture media was replaced with DMEM containing 0.5% BCS 1 hour prior to experimentation. Cells were incubated with the peptide analogues or reagent (LPA or forskolin) diluted in DMEM containing 0.5% BCS, 30 minutes at 37° C. Cells were then fixed in 4% paraformaldehyde, permeabilized in 0.25% Triton X-100, and blocked with 1% BSA solution for 1 hour. To determine α-actin cytoskeletal distribution, treated cells were incubated with Alexa 568 phalloidin (Molecular Probes, Eugene, Oreg.) in 1% BSA, 30 min. To determine focal adhesion protein localization, treated cells were incubated with primary monoclonal antibodies for α-actinin (1:100, Upstate, Charlottesville, Va.), vinculin (1:100, Sigma) or paxillin (1:100, BD Bioscience-Transduction Labs, San Jose, Calif.) in 1% BSA solution for 2 hours, rinsed in PBS and incubated 60 minutes with Cy3-goat IgG secondary antibody (Jackson ImmunoResearch, West Grove, Pa.). Slides were mounted and analyzed by confocal microscopy (Leica TCS SP2, Bannockburn, Ill.). […]

With lysophosphatidic acid the “stress fibers and cell morphology” value was “displayed robust stress fibers”.
